26 compounds from patent US20260297070A1, “CYCLIC [COMPOUND LEFT OUT] WRN INHIBITORS” (Nimbus Wadjet, Inc., priority 2023, published 2026) can be followed below.

In the assay the target is T1, human Werner helicase (WRN-BV08, Uniprot Q14191, amino acids 517-1235 with L1074F point mutation) (Homo sapiens, UniProt Q14191, L1074F).
T1 construct: Uniprot Q14191, amino acids 517-1235 with L1074F point mutation; TEV-cleavable 8×His (C, cleaved yes); made in house; host or cells: Sf9 insect cells (baculovirus)
T1 sequence (Q14191 with tags, fused parts or gaps L1074F limits assumed): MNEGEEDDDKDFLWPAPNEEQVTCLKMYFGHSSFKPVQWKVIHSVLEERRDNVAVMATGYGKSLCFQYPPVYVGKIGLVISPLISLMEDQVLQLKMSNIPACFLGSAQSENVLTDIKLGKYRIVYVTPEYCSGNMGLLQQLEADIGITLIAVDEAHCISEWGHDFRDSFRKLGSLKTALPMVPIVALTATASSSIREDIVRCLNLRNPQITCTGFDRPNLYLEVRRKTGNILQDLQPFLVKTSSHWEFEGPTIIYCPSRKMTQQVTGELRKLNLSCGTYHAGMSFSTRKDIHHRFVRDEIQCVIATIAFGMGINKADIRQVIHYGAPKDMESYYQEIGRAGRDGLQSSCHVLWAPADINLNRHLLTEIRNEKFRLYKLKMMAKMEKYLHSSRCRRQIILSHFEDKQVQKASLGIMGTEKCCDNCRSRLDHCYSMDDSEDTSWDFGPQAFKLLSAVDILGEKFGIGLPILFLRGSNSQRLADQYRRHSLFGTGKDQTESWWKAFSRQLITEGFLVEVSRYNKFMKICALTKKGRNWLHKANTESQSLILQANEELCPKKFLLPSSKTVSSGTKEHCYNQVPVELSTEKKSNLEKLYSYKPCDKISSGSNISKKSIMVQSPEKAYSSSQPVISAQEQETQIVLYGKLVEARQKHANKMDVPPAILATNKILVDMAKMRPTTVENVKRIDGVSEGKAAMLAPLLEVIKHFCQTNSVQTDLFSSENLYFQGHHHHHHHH
Nature of the assay: WRN (BV08) ADP-Glo Assay. The settings on record: 0.15 nM WRN, 5 μM ATP, 0.1 nM DNA duplex, 15 min preincubation, 60 min at 25° C., pH 7.5, 1% DMSO; read-out: ADP-Glo_hWRN_IC50. It counts as biochemical. The gist of the method:
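Helicase ATPase activity is measured at 25 °C over 60 min using 0.15 nM enzyme, 5 μM ATP and 0.1 nM DNA duplex, final DMSO 1%. ADP production is detected by luminescence, with IC50 derived by curve fitting.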

Take `O=C(C1Cc2ccc(Cl)cc21)N(Cc1ccncc1)C1C=CS(=O)(=O)C1` (centres unmarked) [I-650, 4-chloro-N-(1,1-dioxo-2,3-dihydro-1lambda6-thiophen-3-yl)-N-[(pyridin-4-yl)methyl]bicyclo[4.2.0]octa-1,3,5-triene-7-carboxamide]: the IC50 was > 50 µM.
In the case of `CS(=O)(=O)N1CCN(C(=O)C(C(=O)N(Cc2ccncc2)C2C=CS(=O)(=O)C2)c2ccc(-c3ccc(F)cc3)cc2)CC1` (centres unmarked) [I-666, N-(1,1-dioxo-2,3-dihydro-1lambda6-thiophen-3-yl)-2-{4′-fluoro-[1,1′-biphenyl]-4-yl}-3-(4-methanesulfonylpiperazin-1-yl)-3-oxo-N-[(pyridin-4-yl)methyl]propanamide], the IC50 was in the range of 5 to 10 µM.
As to `COc1cc(CN(C(=O)C(c2ccc(-c3ccc(F)c(F)c3)cc2F)n2ccc(C)n2)[C@@H]2C=CS(=O)(=O)C2)ccn1` (single isomer, unassigned) [I-737, (2R*)-N-[(3R)-1,1-dioxo-2,3-dihydro-1lambda6-thiophen-3-yl]-N-[(2-methoxypyridin-4-yl)methyl]-2-(3-methyl-1H-pyrazol-1-yl)-2-{3,3′,4′-trifluoro-[1,1′-biphenyl]-4-yl}acetamide], the IC50 is < 0.5 µM.
In the case of `CC(C)c1ccc(CC(=O)N(Cc2ccnc(C(C)(C)O)c2)C2C=CS(=O)(=O)C2)cc1` (centres unmarked) [I-123, N-(1,1-dioxo-2,3-dihydro-1lambda6-thiophen-3-yl)-N-{[2-(2-hydroxypropan-2-yl)pyridin-4-yl]methyl}-2-[4-(propan-2-yl)phenyl]acetamide], the IC50 lay within 0.5 to 5 µM.
On to `C=CCOC(C(=O)N(Cc1ccnc(C(C)(C)O)c1)[C@@H]1C=CS(=O)(=O)C1)c1ccc(-c2ccc(F)c(F)c2)cc1F` (single isomer, unassigned) [I-641], for which the IC50 is < 0.5 µM.
On to `COc1cc(CN(C(=O)Cc2ccc(-n3cccc3C)cc2)C2C=CS(=O)(=O)C2)ccn1` (centres unmarked) [I-119, N-(1,1-dioxo-2,3-dihydro-1lambda6-thiophen-3-yl)-N-[(2-methoxypyridin-4-yl)methyl]-2-[4-(2-methyl-1H-pyrrol-1-yl)phenyl]acetamide], for which the IC50 fell in the range of 0.5 to 5 µM.
The result for `O=C(Cc1ccc(S(F)(F)(F)(F)F)cc1)N(Cc1ccnc(C2(O)COC2)c1)C1C=CS(=O)(=O)C1` (centres unmarked) [I-633, N-(1,1-dioxo-2,3-dihydro-1lambda6-thiophen-3-yl)-N-{[2-(3-hydroxyoxetan-3-yl)pyridin-4-yl]methyl}-2-[4-(pentafluoro-lambda6-sulfanyl)phenyl]acetamide] reads 10 to 50 µM.
As for `COc1ccc(C(F)(F)C(=O)N(Cc2ccncc2)C2C=CS(=O)(=O)C2)cc1` (centres unmarked) [I-649, N-(1,1-dioxo-2,3-dihydro-1lambda6-thiophen-3-yl)-2,2-difluoro-2-(4-methoxyphenyl)-N-[(pyridin-4-yl)methyl]acetamide], the IC50 was > 50 µM.
In the case of `COc1cc(C(C)N(C(=O)Cn2cc(-c3cc(F)c(F)c(F)c3)cn2)C2C=CS(=O)(=O)C2)ccn1` (single isomer, unassigned) [I-828, N-[(3R**)-1,1-dioxo-2,3-dihydro-1lambda6-thiophen-3-yl]-N-[(1R*)-1-(2-methoxypyridin-4-yl)ethyl]-2-[4-(3,4,5-trifluorophenyl)-1H-pyrazol-1-yl]acetamide], the IC50 lay in the range of 0.5 to 5 µM.
Regarding `N#Cc1cc(F)ccc1-c1ccc(CC(=O)N(Cc2ccncc2)C2C=CS(=O)(=O)C2)cc1` (centres unmarked) [I-348, 2-{2′-cyano-4′-fluoro-[1,1′-biphenyl]-4-yl}-N-(1,1-dioxo-2,3-dihydro-1lambda6-thiophen-3-yl)-N-[(pyridin-4-yl)methyl]acetamide], the IC50 is 10 to 50 µM.
Take `CSc1ccc(CC(=O)N(Cc2ccncc2)C2C=CS(=O)(=O)C2)cc1` (centres unmarked) [I-339, N-(1,1-dioxo-2,3-dihydro-1lambda6-thiophen-3-yl)-2-[4-(methylsulfanyl)phenyl]-N-[(pyridin-4-yl)methyl]acetamide]: the IC50 lay in the range of 10 to 50 µM.
The result for `COc1ccc2cc(CC(=O)N(Cc3ccncc3)C3C=CS(=O)(=O)C3)ccc2c1` (centres unmarked) [I-511, N-(1,1-dioxo-2,3-dihydro-1lambda6-thiophen-3-yl)-2-(6-methoxynaphthalen-2-yl)-N-[(pyridin-4-yl)methyl]acetamide] reads > 50 µM.
The result for `CN(C)C(=O)C(C(=O)N(Cc1ccnc(C(C)(C)O)c1)C1C=CS(=O)(=O)C1)c1ccc(-c2ccc(F)cc2)cc1F` (single isomer, unassigned) [I-237, (2R**)-2-{3,4′-difluoro-[1,1′-biphenyl]-4-yl}-N-[(3R*)-1,1-dioxo-2,3-dihydro-1lambda6-thiophen-3-yl]-N-{[2-(2-hydroxypropan-2-yl)pyridin-4-yl]methyl}-N′,N′-dimethylpropanediamide] reads 5 to 10 µM.
The result for `COc1cc(CN(C(=O)C(c2ccc(-c3ccc(F)c(F)c3)cc2F)n2nccn2)[C@@H]2C=CS(=O)(=O)C2)ccn1` (stereo partly drawn) [I-733, N-[(3R)-1,1-dioxo-2,3-dihydro-1lambda6-thiophen-3-yl]-N-[(2-methoxypyridin-4-yl)methyl]-2-(2H-1,2,3-triazol-2-yl)-2-{3,3′,4′-trifluoro-[1,1′-biphenyl]-4-yl}acetamide] reads < 0.5 µM; that for `CS(=O)(=O)Nc1cccc(CN(C(=O)Cc2ccc(-n3cccc3)cc2)C2C=CS(=O)(=O)C2)c1` (centres unmarked) [I-344, N-(1,1-dioxo-2,3-dihydro-1lambda6-thiophen-3-yl)-N-[(3-methanesulfonamidophenyl)methyl]-2-[4-(1H-pyrrol-1-yl)phenyl]acetamide], 10 to 50 µM; that for `Cc1c(CC(=O)N(Cc2ccncc2)C2C=CS(=O)(=O)C2)c(=O)[nH]c2ccccc12` (centres unmarked) [I-418, N-(1,1-dioxo-2,3-dihydro-1lambda6-thiophen-3-yl)-2-(4-methyl-2-oxo-1,2-dihydroquinolin-3-yl)-N-[(pyridin-4-yl)methyl]acetamide], > 50 µM.
For `COc1cc(CN(C(=O)Cc2ccc(C(F)(F)F)cc2)C2C=CS(=O)(=O)C2)ccn1` (centres unmarked) [I-105, N-(1,1-dioxo-2,3-dihydro-1lambda6-thiophen-3-yl)-N-[(2-methoxypyridin-4-yl)methyl]-2-[4-(trifluoromethyl)phenyl]acetamide], the IC50 was 0.5 to 5 µM.
Next, `COc1cc(CN(C(=O)[C@H](C(=O)N(C)C)c2ccc(-c3ccc(F)cc3)cc2F)[C@@H]2C=CS(=O)(=O)C2)ccn1` [I-9, (2S)-2-{3,4′-difluoro-[1,1′-biphenyl]-4-yl}-N-[(3R)-1,1-dioxo-2,3-dihydro-1lambda6-thiophen-3-yl]-N-[(2-methoxypyridin-4-yl)methyl]-N′,N′-dimethylpropanediamide]: < 0.5 µM; `COC(C(=O)N(Cc1ccnc(C(C)(C)O)c1)C1C=CS(=O)(=O)C1)c1ccc(S(F)(F)(F)(F)F)cc1` (single isomer, unassigned) [I-665, (2R*)-N-[(3R**)-1,1-dioxo-2,3-dihydro-1lambda6-thiophen-3-yl]-N-{[2-(2-hydroxypropan-2-yl)pyridin-4-yl]methyl}-2-methoxy-2-[4-(pentafluoro-lambda6-sulfanyl)phenyl]acetamide]: 10 to 50 µM.
Turning to `O=C(Cc1ccc(-n2cccc2)cc1)N(Cc1cnc2ccccc2c1)C1C=CS(=O)(=O)C1` (centres unmarked) [I-296, N-(1,1-dioxo-2,3-dihydro-1lambda6-thiophen-3-yl)-2-[4-(1H-pyrrol-1-yl)phenyl]-N-[(quinolin-3-yl)methyl]acetamide], the IC50 lay within 10 to 50 µM.
The result for `COCCOc1cc(CN(C(=O)Cc2ccc(S(F)(F)(F)(F)F)cc2)C2C=CS(=O)(=O)C2)ccn1` (centres unmarked) [I-719, N-(1,1-dioxo-2,3-dihydro-1lambda6-thiophen-3-yl)-N-{[2-(2-methoxyethoxy)pyridin-4-yl]methyl}-2-[4-(pentafluoro-lambda6-sulfanyl)phenyl]acetamide] reads < 0.5 µM; that for `COC(C(=O)N(Cc1nc(C(C)(C)O)cs1)C1C=CS(=O)(=O)C1)c1ccc(-c2ccc(F)c(F)c2)cc1F` (single isomer, unassigned) [I-746, (2R*)-N-[(3R**)-1,1-dioxo-2,3-dihydro-1lambda6-thiophen-3-yl]-N-{[4-(2-hydroxypropan-2-yl)-1,3-thiazol-2-yl]methyl}-2-methoxy-2-{3,3′,4′-trifluoro-[1,1′-biphenyl]-4-yl}acetamide], < 0.5 µM; that for `CNC(=O)c1ccc(CN(C(=O)Cc2ccc(-n3cccc3)cc2)C2C=CS(=O)(=O)C2)cc1` (centres unmarked) [I-255, 4-{[N-(1,1-dioxo-2,3-dihydro-1lambda6-thiophen-3-yl)-2-[4-(1H-pyrrol-1-yl)phenyl]acetamido]methyl}-N-methylbenzamide], 5 to 10 µM.
Turning to `O=C(CCc1nc2cc(Cl)ccc2s1)N(Cc1ccncc1)C1C=CS(=O)(=O)C1` (centres unmarked) [I-391, 3-(5-chloro-1,3-benzothiazol-2-yl)-N-(1,1-dioxo-2,3-dihydro-1lambda6-thiophen-3-yl)-N-[(pyridin-4-yl)methyl]propanamide], the IC50 is > 50 µM.
In the case of `COc1cc(CN(C(=O)Cc2ccc(-n3ccc(F)cc3=O)cc2F)C2C=CS(=O)(=O)C2)ccn1` (centres unmarked) [I-453, N-(1,1-dioxo-2,3-dihydro-1lambda6-thiophen-3-yl)-2-[2-fluoro-4-(4-fluoro-2-oxo-1,2-dihydropyridin-1-yl)phenyl]-N-[(2-methoxypyridin-4-yl)methyl]acetamide], the IC50 was > 50 µM.
Turning to `COc1cc(CN(C(=O)Cc2ccc(-n3cccc3C)cc2F)[C@@H]2C=CS(=O)(=O)C2)ccn1` [I-56, N-[(3R)-1,1-dioxo-2,3-dihydro-1lambda6-thiophen-3-yl]-2-[2-fluoro-4-(2-methyl-1H-pyrrol-1-yl)phenyl]-N-[(2-methoxypyridin-4-yl)methyl]acetamide], the IC50 was < 0.5 µM.
